Test results from patent publication US9452986B2, “6-heteroaryloxy- or 6-aryloxy-quinoline-2-carboxamides and method of use” (AbbVie Inc., priority 2014, dated 2016).

Molecular target: recombinant human Nav1.7 (Homo sapiens (Human), UniProt Q15858)
Assay: FRET-based membrane potential assay, recombinant human sodium channel Nav1.7
Format: cell-based
Conditions: FRET-Membrane Potential Nav1.7 IC50
Experimental: FRET-Based Membrane Potential Assays.
Recombinant, Human Sodium Channel, Nav1.7.
On the day of the assay, medium was removed by aspiration, and cells were washed with assay buffer [HBSS (Invitrogen, Carlsbad, Calif.) containing 20 mM HEPES (Invitrogen, Carlsbad, Calif.)]. […] Cells were incubated for 40 minutes at room temperature in the dark. […] The cells were incubated for 90 minutes at room temperature in the dark. Fluorescence readings were made using a FLIPR®^TETRA (Molecular Devices, Sunnyvale Calif.) equipped with voltage-sensor probe optics. At the start of each experiment the optimal (EC80) concentration of depolarizing agent (veratridine) was determined by testing a dilution curve of assay buffer containing veratridine (Sigma-Aldrich, St. Louis, Mo.) and 1 mg/mL scorpion venom (SVqq, from Leiurus quinquestriatus; Sigma-Aldrich, St. Louis, Mo.). […] Test compounds in the daughter plate were diluted to (˜3×) solutions in assay buffer immediately before assaying. Using the FLIPR®^TETRA, 20 μL of the (3×) compound solutions were first added to the cells, then 20 μL of depolarizing solution (3×EC80 veratridine+SVqq) were added 3 minutes later to activate the channel. […] IC50 values were calculated from curve fits of the ratio data using a four-parameter logistic Hill equation (Accelrys Assay Explorer 3.3 Client, Accelrys, San Diego, Calif.) with percent inhibition plotted against compound concentration.

Chain of recombinant human Nav1.7 (Q15858 whole entry): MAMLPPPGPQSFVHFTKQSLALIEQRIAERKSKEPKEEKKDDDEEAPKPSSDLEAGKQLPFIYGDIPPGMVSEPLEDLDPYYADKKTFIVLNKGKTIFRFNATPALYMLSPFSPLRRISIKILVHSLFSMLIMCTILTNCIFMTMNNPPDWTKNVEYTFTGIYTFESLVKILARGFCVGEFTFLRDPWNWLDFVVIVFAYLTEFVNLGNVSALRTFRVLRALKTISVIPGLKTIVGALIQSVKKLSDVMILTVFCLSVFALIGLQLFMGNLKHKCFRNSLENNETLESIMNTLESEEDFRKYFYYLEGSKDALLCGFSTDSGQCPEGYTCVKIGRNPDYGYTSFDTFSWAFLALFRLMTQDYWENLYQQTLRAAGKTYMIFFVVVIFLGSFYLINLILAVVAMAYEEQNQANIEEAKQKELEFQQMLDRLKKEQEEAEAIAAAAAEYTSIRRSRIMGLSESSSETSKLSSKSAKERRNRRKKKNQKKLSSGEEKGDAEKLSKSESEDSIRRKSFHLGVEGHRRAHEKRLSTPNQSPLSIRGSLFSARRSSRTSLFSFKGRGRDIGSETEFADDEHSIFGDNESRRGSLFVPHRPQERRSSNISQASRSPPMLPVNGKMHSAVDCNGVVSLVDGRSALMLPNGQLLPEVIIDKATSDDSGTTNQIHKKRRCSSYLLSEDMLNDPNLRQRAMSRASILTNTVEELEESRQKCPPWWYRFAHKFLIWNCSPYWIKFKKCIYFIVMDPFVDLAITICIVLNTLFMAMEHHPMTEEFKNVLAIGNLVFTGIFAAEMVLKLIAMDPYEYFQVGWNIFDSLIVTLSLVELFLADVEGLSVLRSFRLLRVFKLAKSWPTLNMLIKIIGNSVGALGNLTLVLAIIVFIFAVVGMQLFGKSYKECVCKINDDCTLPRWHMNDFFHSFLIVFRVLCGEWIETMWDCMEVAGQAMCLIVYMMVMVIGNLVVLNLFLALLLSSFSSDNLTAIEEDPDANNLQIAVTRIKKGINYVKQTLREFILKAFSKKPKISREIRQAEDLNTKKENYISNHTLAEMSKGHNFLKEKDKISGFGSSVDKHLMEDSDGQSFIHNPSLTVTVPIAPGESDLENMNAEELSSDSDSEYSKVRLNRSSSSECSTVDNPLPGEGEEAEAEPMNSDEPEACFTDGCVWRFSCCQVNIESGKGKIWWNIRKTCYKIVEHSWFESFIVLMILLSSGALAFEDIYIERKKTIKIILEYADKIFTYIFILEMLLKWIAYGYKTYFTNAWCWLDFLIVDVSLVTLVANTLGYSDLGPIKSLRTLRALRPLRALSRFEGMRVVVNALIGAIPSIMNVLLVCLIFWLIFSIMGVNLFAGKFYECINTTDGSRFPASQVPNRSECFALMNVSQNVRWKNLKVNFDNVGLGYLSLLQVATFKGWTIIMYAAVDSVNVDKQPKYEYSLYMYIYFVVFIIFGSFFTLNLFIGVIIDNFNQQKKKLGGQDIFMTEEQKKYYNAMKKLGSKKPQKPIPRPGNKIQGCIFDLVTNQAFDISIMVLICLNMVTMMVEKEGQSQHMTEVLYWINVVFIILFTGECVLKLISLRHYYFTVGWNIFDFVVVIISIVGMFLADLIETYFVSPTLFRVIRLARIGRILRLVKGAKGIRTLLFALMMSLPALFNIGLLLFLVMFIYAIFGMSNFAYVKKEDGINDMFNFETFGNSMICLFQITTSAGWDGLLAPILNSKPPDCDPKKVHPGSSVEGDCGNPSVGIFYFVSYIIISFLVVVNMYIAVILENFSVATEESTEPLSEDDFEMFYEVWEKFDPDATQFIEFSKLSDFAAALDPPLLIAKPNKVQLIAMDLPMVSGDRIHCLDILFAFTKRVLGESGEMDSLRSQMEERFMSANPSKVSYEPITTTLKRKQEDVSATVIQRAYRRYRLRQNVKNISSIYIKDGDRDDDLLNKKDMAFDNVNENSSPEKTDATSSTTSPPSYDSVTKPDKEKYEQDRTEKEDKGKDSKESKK

**Q.** With O=C(c1ccc2cc(Oc3ccc(C(F)(F)F)cn3)ccc2n1)N1CC[C@H](O)[C@H](F)C1 (relative stereo) [Example 191, [cis-3-fluoro-4-hydroxypiperidin-1-yl](6-{[5-(trifluoromethyl)pyridin-2-yl]oxy}quinolin-2-yl)methanone] as the molecule, how does the IC50 read?
**A.** > 20 µM

**Q.** For O=C(c1ccc2cc(Oc3ccc(C(F)(F)F)cn3)ccc2n1)N1CC[C@@H](O)[C@H](F)C1 (relative stereo) [Example 195, [trans-3-fluoro-4-hydroxypiperidin-1-yl](6-{[5-(trifluoromethyl)pyridin-2-yl]oxy}quinolin-2-yl)methanone], which IC50 is on record?
**A.** 7.6 µM

Same assay, conditions: HEK293 cells stably expressing recombinant human Nav1.7; veratridine + scorpion venom depolarization; read-out: FRET-Membrane Potential Nav1.7 IC50

**Q.** “1,4-diazepan-1-yl(6-{[5-(trifluoromethyl)pyridin-2-yl]oxy}quinolin-2-yl)methanone [Example 219]” was tested. Which IC50 did it give?
**A.** 2.56 µM

**Q.** For CC1[C@@H](O)[C@@H](O)C(C)N1C(=O)c1ccc2cc(Oc3ccc(C(F)(F)F)cn3)ccc2n1 (mixture of isomers) [Example 323, rac-[(3R,4S)-3,4-dihydroxy-2,5-dimethylpyrrolidin-1-yl](6-{[5-(trifluoromethyl)pyridin-2-yl]oxy}quinolin-2-yl)methanone], which IC50 is on record?
**A.** > 20 µM

**Q.** O=C(c1ccc2cc(Oc3ccc(C(F)(F)F)cn3)ccc2n1)N1CC[C@H](F)[C@H](O)C1 (relative stereo) [Example 192, [cis-4-fluoro-3-hydroxypiperidin-1-yl](6-{[5-(trifluoromethyl)pyridin-2-yl]oxy}quinolin-2-yl)methanone] was tested. Which IC50 did it give?
**A.** 17.7 µM

**Q.** How did the IC50 turn out when O=C(c1ccc2cc(Oc3ccc(C(F)(F)F)cn3)ccc2n1)N1CC[C@@H](F)[C@H](O)C1 (relative stereo) [Example 196, [trans-4-fluoro-3-hydroxypiperidin-1-yl](6-{[5-(trifluoromethyl)pyridin-2-yl]oxy}quinolin-2-yl)methanone] was run?
**A.** 4.93 µM

**Q.** With O=C(c1ccc2cc(Oc3ccc(C(F)(F)F)cn3)ccc2n1)N1C[C@@H](O)[C@H](O)C1 (relative stereo) [Example 303, [trans-3,4-dihydroxypyrrolidin-1-yl](6-{[5-(trifluoromethyl)pyridin-2-yl]oxy}quinolin-2-yl)methanone] as the molecule, how does the IC50 read?
**A.** 5.68 µM

**Q.** CO[C@@H]1CN(C(=O)c2ccc3cc(Oc4ccc(C(F)(F)F)cn4)ccc3n2)C[C@H]1O (relative stereo) [Example 305, [trans-3-hydroxy-4-methoxypyrrolidin-1-yl](6-{[5-(trifluoromethyl)pyridin-2-yl]oxy}quinolin-2-yl)methanone] was tested. Which IC50 did it give?
**A.** 13.6 µM

**Q.** Which IC50 does the source give for C[C@@H]1CN(C(=O)c2ccc3cc(Oc4ccc(C(F)(F)F)cn4)ccc3n2)C[C@H]1O (relative stereo) [Example 306, [trans-3-hydroxy-4-methylpyrrolidin-1-yl](6-{[5-(trifluoromethyl)pyridin-2-yl]oxy}quinolin-2-yl)methanone] here?
**A.** 14.8 µM

**Q.** With O=C(c1ccc2cc(Oc3ccc(C(F)(F)F)cn3)ccc2n1)N1CC[C@H](O)[C@H](O)C1 (relative stereo) [Example 350, [cis-3,4-dihydroxypiperidin-1-yl](6-{[5-(trifluoromethyl)pyridin-2-yl]oxy}quinolin-2-yl)methanone] as the molecule, how does the IC50 read?
**A.** > 20 µM

**Q.** Which IC50 does the source give for CS(=O)(=O)[C@@H]1CN(C(=O)c2ccc3cc(Oc4ccc(C(F)(F)F)cn4)ccc3n2)C[C@H]1O (relative stereo) [Example 351, [trans-3-hydroxy-4-(methylsulfonyl)pyrrolidin-1-yl](6-{[5-(trifluoromethyl)pyridin-2-yl]oxy}quinolin-2-yl)methanone] here?
**A.** 3.6 µM

**Q.** COCO[C@H]1CN(C(=O)c2ccc3cc(Oc4ccc(C(F)(F)F)cn4)ccc3n2)C[C@H]1O (relative stereo) [Example 368, [cis-3-hydroxy-4-(methoxymethoxy)pyrrolidin-1-yl](6-{[5-(trifluoromethyl)pyridin-2-yl]oxy}quinolin-2-yl)methanone] was tested. Which IC50 did it give?
**A.** 1.25 µM

**Q.** For O=C(NCC(O)C(F)(F)F)c1ccc2cc(Oc3ccc(C(F)(F)F)cn3)ccc2n1 (stereo not shown) [Example 75, N-(3,3,3-trifluoro-2-hydroxypropyl)-6-{[5-(trifluoromethyl)pyridin-2-yl]oxy}quinoline-2-carboxamide], which IC50 is on record?
**A.** 0.944 µM

**Q.** O=C(c1ccc2cc(Oc3ccccn3)ccc2n1)N1CCOCC1 [Example 76, morpholin-4-yl[6-(pyridin-2-yloxy)quinolin-2-yl]methanone] was tested. Which IC50 did it give?
**A.** > 20 µM

**Q.** How did the IC50 turn out when CN1CCN(C(=O)c2ccc3cc(Oc4ccccn4)ccc3n2)CC1 [Example 77, (4-methylpiperazin-1-yl)[6-(pyridin-2-yloxy)quinolin-2-yl]methanone] was run?
**A.** > 20 µM

**Q.** How did the IC50 turn out when CN1CCN(C(=O)c2ccc3cc(Oc4ccc(C#N)cc4)ccc3n2)CC1 [Example 81, 4-({2[(4-methylpiperazin-1-yl)carbonyl]quinolin-6-yl}oxy)benzonitrile] was run?
**A.** 1.87 µM

**Q.** N#Cc1ccc(Oc2ccc3nc(C(=O)N4CCOCC4)ccc3c2)cc1 [Example 83, 4-{[2-(morpholin-4-ylcarbonyl)quinolin-6-yl]oxy}benzonitrile] was tested. Which IC50 did it give?
**A.** > 20 µM

**Q.** With N#Cc1ccc(Oc2ccc3nc(C(=O)NCCCN4CCOCC4)ccc3c2)cc1 [Example 87, 6-(4-cyanophenoxy)-N-[3-(morpholin-4-yl)propyl]quinoline-2-carboxamide] as the molecule, how does the IC50 read?
**A.** 1.23 µM

**Q.** Which IC50 does the source give for N#Cc1ccc(Oc2ccc3nc(C(=O)Nc4nccs4)ccc3c2)cc1 [Example 88, 6-(4-cyanophenoxy)-N-(1,3-thiazol-2-yl)quinoline-2-carboxamide] here?
**A.** > 20 µM

**Q.** Which IC50 does the source give for N#Cc1ccc(Oc2ccc3nc(C(=O)NCc4cccnc4)ccc3c2)cc1 [Example 89, 6-(4-cyanophenoxy)-N-(pyridin-3-ylmethyl)quinoline-2-carboxamide] here?
**A.** 1.52 µM

**Q.** How did the IC50 turn out when N#Cc1ccc(Oc2ccc3nc(C(=O)N[C@H]4CCOC4=O)ccc3c2)cc1 [Example 90, 6-(4-cyanophenoxy)-N-[(3S)-2-oxotetrahydrofuran-3-yl]quinoline-2-carboxamide] was run?
**A.** 0.368 µM

Same assay, conditions: read-out: FRET-Membrane Potential Nav1.7 IC50

**Q.** For Cc1noc(C2CCCN(C(=O)c3ccc4cc(Oc5ccccn5)ccc4n3)C2)n1 (stereo not shown) [Example 78, [3-(3-methyl-1,2,4-oxadiazol-5-yl)piperidin-1-yl][6-(pyridin-2-yloxy)quinolin-2-yl]methanone], which IC50 is on record?
**A.** > 20 µM

**Q.** With O=C(NCCN1CCCCC1)c1ccc2cc(Oc3ccccn3)ccc2n1 [Example 79, N-[2-(piperidin-1-yl)ethyl]-6-(pyridin-2-yloxy)quinoline-2-carboxamide] as the molecule, how does the IC50 read?
**A.** > 20 µM

**Q.** O=C(Nc1ncns1)c1ccc2cc(Oc3ccccn3)ccc2n1 [Example 80, 6-(pyridin-2-yloxy)-N-(1,2,4-thiadiazol-5-yl)quinoline-2-carboxamide] was tested. Which IC50 did it give?
**A.** > 20 µM

**Q.** Which IC50 does the source give for N#Cc1ccc(Oc2ccc3nc(C(=O)NCCN4CCCCC4)ccc3c2)cc1 [Example 82, 6-(4-cyanophenoxy)-N-[2-(piperidin-1-yl)ethyl]quinoline-2-carboxamide] here?
**A.** 0.222 µM

**Q.** N#Cc1ccc(Oc2ccc3nc(C(=O)Nc4ccc5cn[nH]c5c4)ccc3c2)cc1 [Example 84, 6-(4-cyanophenoxy)-N-(1H-indazol-6-yl)quinoline-2-carboxamide] was tested. Which IC50 did it give?
**A.** > 20 µM

**Q.** With CN(C)CCCNC(=O)c1ccc2cc(Oc3ccc(C#N)cc3)ccc2n1 [Example 85, 6-(4-cyanophenoxy)-N-[3-(dimethylamino)propyl]quinoline-2-carboxamide] as the molecule, how does the IC50 read?
**A.** 0.238 µM

**Q.** How did the IC50 turn out when N#Cc1ccc(Oc2ccc3nc(C(=O)NCCN4CCOCC4)ccc3c2)cc1 [Example 86, 6-(4-cyanophenoxy)-N-[2-(morpholin-4-yl)ethyl]quinoline-2-carboxamide] was run?
**A.** 1.74 µM
